Assay results as given in publication PMC11766601, “A Comparative Study of the In Vitro Intestinal Permeability of Pinnatoxins and Portimine” (Marine Drugs, 2025).

What was measured:
[1] = system: Caco-2 cell monolayers; assay: Lucifer Yellow paracellular permeability (barrier integrity); assay type: cell-based, human; conditions: 24 h
Protocol: (§1) All experiments were performed with human intestinal Caco-2 cells (ATCC-HTB37), acquired from the American Type Culture Collection (ATCC; Manassas, VA, USA). Caco-2 cells originate from a colorectal adenocarcinoma, but upon reaching confluence, they differentiate and express the characteristics of enterocytes. The cells were cultivated in minimum essential medium containing 5.5 mM D-glucose, Earle’s salts, and 2 mM L-alanyl-glutamine (MEM GlutaMAX™, Gibco, Bromont, QC, Canada) supplemented with 10% fetal bovine serum (FBS, Gibco), 1% non-essential amino acids, 50 U/mL penicillin, and 50 μg/mL streptomycin (Gibco) under humidified conditions (37 °C, 5% CO2, 95% humidity). The cells were grown for 3–4 days up to 80% confluence before trypsinization and sub-culture. For the experiments, the cells were seeded in TRANSWELL® plates (12 wells, 0.4 µm pore size; Costar®, Corning Incorporated, Corning, NY, USA) at a density of 90,000 cells/cm^2. Prior to toxin treatment, highly differentiated Caco-2 cells were obtained after 24–26 days of culture, with medium renewal every 2–3 days. Passage numbers between 30 and 40 were used for experiments.
(§2) PnTX-A, PnTX-G, PnTX-E, PnTX-H, and portimine stock solutions were prepared in methanol, while PnTX-F was provided in acetonitrile/acetic acid (50%/0.1%). For each toxin, the cells were incubated at 8, 16, and 32 ng/mL (diluted in HBSS) for 2 h, 6 h, and 24 h, with a final volume of 1.5% solvent. The controls were incubated with the cell culture medium containing the respective solvent of the toxin at 1.5%. Each experiment included three biological replicates. Two to three independent experiments were conducted.
For the assay, both compartments of the insert system were washed with Hank’s balanced salt solution (HBSS). Then, 0.5 mL of 0.1 mg/mL Lucifer Yellow in HBSS buffer and 1 mL of pure HBSS buffer were added to the apical and basolateral compartments, respectively. After a 2 h incubation at 37 °C, the media of the basolateral compartments were collected and the fluorescence of each compartment was measured in triplicate (excitation: 405 nm, emission: 520 nm) with a FLUOstar Optima microplate reader (BMG Labtech, Ortenberg, Germany). After subtraction of the blank (HBSS), the permeability of the […] was calculated against the value obtained for pure LY and reported as % permeability.

[2] = system: Caco-2 cells; assay: Trans-epithelial electrical resistance (TEER) of differentiated Caco-2 monolayers; assay type: cell-based, human
Protocol: as §1, §2
Epithelial integrity was examined by measuring the TEER between the apical and basolateral compartments. After rinsing with a HBSS solution (HBSS, HEPES 5 mM, pH 7.4), the Caco-2 monolayers were equilibrated for 30 min at 37 °C with 300 and 1000 µL HBSS in the apical (A) and basolateral (B) chambers, respectively. Then, the content of the apical compartment was replaced with 500 µL HBSS-containing toxins. TEER was quantified with a Millipore Millicell Electrical Resistance System (ERS Millipore, EMD Millipore Corporation, Burlington, MA, USA). The mean value of two measurements per well before and after the treatment was calculated and multiplied by the surface of the insert to obtain Ω × cm^2. After blank subtraction, the results were presented as a percentage of the solvent control.

[3] = Toxin crossing and apparent permeability across Caco-2 cell monolayers (A to B), LC-MS/MS; assay type: in vitro ADME, human; conditions: human, Caco-2; for Papp at 2 h, 8 ng/mL / Papp at 6 h, 8 ng/mL: loaded 8 ng/mL; for Papp at 2 h, 8 ng/mL / Papp at 2 h, 16 ng/mL / Papp at 2 h, 32 ng/mL / Papp at 6 h, 8 ng/mL / Papp at 6 h, 16 ng/mL / Papp at 6 h, 32 ng/mL: A to B; for Papp at 2 h, 16 ng/mL / Papp at 6 h, 16 ng/mL: loaded 16 ng/mL; for Papp at 2 h, 32 ng/mL / Papp at 6 h, 32 ng/mL: loaded 32 ng/mL
Protocol: as §1, §2
(§3) The apical and basolateral compartments were collected after 2, 6, and 24 h treatment time. Parts of the solutions that were used to load the apical compartments were also stored (T0) to take into account the real concentration and not the estimated concentration. All the samples were stored at −20 °C until LC/MS analysis.
(§4) The LC-MS/MS analysis of toxins was implemented for the quantitative analysis of toxins. The LC system was an Agilent 1200 (Agilent Technologies, Santa Clara, CA, USA). The chromatographic separation was performed using a column Hypersil GOLD® C18 50 mm × 2.1 mm, 1.9 μm (Thermo Scientific, Waltham, MA, USA). Eluent A consisted of water, and eluent B of acetonitrile/water at a ratio of 95:5 (v/v), with both eluents containing 50 mM formic acid and 2 mM ammonium formate. The LC flow rate was 0.4 mL/min, and the gradient was programmed as follows: 10% B held for 0.5 min, 10–90% B in 5 min, 90% B held for 1 min, 90–10% B in 0.5 min, and 10% B held for 3.0 min, for a total run time of 10 min. The injection volume was 5 μL, while the column temperature was maintained at 40 °C. The column effluent was transferred via a divert valve (Valco Instruments Co., Inc., Houston, TX, USA), either to the mass spectrometer (between 1.7 and 5.5 min) or to waste.
(§5) The detection system was constructed with an API 4000 triple quadrupole mass spectrometer (Sciex, Framingham, MA, USA) equipped with an ElectroSpray Ionization (ESI) source (Turbo V). The mass spectrometer was operated in positive ESI mode. The source temperature was set at 600 °C, and the spray voltage was 5500 V. Air was used as a nebulizer gas and an auxiliary gas, with a gas pressure of 40 and 60 psi, respectively. Meanwhile, the curtain gas and collision gas were nitrogen, with a gas pressure of 15 and 8 psi, respectively. The mass spectrometer was operated in multiple reaction monitoring mode (MRM). One transition was used for quantification (Q) and another as a qualifier transition (q). A mass resolution of 0.7 Da full width at half maximum (FWHD) was set on the first (Q1) and the third (Q3) quadrupoles. Instrument control and data were handled with Analyst software version 1.5.1 (Sciex, Framingham, MA, USA).
(§6) The portimine and PnTX retention times varied between 2.7 and 4.4 min (Figure S1). […]

[4] = system: Caco-2 cell monolayers; assay: as above; assay type: in vitro ADME, human; conditions: for % theoretical amount of toxin crossing the Caco-2 cell monolayers: relative to theoretical loaded concentration; for Percentage of toxin crossing the Caco-2 cell monolayers: A to B, relative to quantified T0; for permeability / oral bioavailability class from Caco-2 Papp: threshold Papp > 1.5 × 10^−6 cm·s^−1 = highly penetrative
Protocol: as §1, §2, §3, §4, §5, §6

[5] = system: mice; conditions: mice, oral exposure; cited from earlier work
[6] = all concentrations (8, 16, 32 ng/mL)

Compound | effect on LY permeability [1, 6] | Papp at 2 h, 8 ng/mL [3] [×10⁻⁶ cm/s] | Papp at 2 h, 16 ng/mL [3] [×10⁻⁶ cm/s] | Papp at 2 h, 32 ng/mL [3] [×10⁻⁶ cm/s] | Papp at 6 h, 8 ng/mL [3] [×10⁻⁶ cm/s] | Papp at 6 h, 16 ng/mL [3] [×10⁻⁶ cm/s] | Papp at 6 h, 32 ng/mL [3] [×10⁻⁶ cm/s] | % theoretical amount of toxin crossing the Caco-2 cell monolayers ([4]; 2 h, 8 ng/mL) [%] | % theoretical amount of toxin crossing the Caco-2 cell monolayers ([4]; 2 h, 16 ng/mL) [%] | % theoretical amount of toxin crossing the Caco-2 cell monolayers ([4]; 2 h, 32 ng/mL) [%] | Percentage of toxin crossing the Caco-2 cell monolayers ([4]; 2 h, loaded 8 ng/mL) [%] | Percentage of toxin crossing the Caco-2 cell monolayers ([4]; 2 h, loaded 16 ng/mL) [%] | Percentage of toxin crossing the Caco-2 cell monolayers ([4]; 2 h, loaded 32 ng/mL) [%] | % theoretical amount of toxin crossing the Caco-2 cell monolayers ([4]; 6 h, 8 ng/mL) [%] | % theoretical amount of toxin crossing the Caco-2 cell monolayers ([4]; 6 h, 16 ng/mL) [%] | % theoretical amount of toxin crossing the Caco-2 cell monolayers ([4]; 6 h, 32 ng/mL) [%] | Percentage of toxin crossing the Caco-2 cell monolayers ([4]; 6 h, loaded 8 ng/mL) [%] | Percentage of toxin crossing the Caco-2 cell monolayers ([4]; 6 h, loaded 16 ng/mL) [%] | Percentage of toxin crossing the Caco-2 cell monolayers ([4]; 6 h, loaded 32 ng/mL) [%] | permeability / oral bioavailability class from Caco-2 Papp [4] | other results
C=C1CCCC2=NCC(C)C(C)CC23CCC(C(=O)O)=CC3C2OC3(CC4CCCC5(CCC6(OC(CCC6(C)O)C1)O5)O4)CC(C)C(O)C2O3 (stereo not drawn) [PnTX-A] | significant increase | 1.45 ± 1.03 | 1.4 ± 0.21 | 1.25 ± 0.39 | 2.13 ± 0.38 | 1.92 ± 0.95 | 1.48 ± 0.41 | 2.83 ± 2.1 | 2.5 ± 0.33 | 2.60 ± 0.80 | 2.35 ± 1.66 | 2.26 ± 0.34 | 2.01 ± 0.63 | 4.08 ± 0.52 | 3.42 ± 1.63 | 3.12 ± 1.05 | 3.44 ± 0.62 | 3.10 ± 1.53 | 2.39 ± 0.65 | poor permeability | effect on TEER ([2]; irrespective of time (2, 6, 24 h) and concentration (8, 16, 32 ng/mL)): no effect; Papp ([3]; 2 and 6 h, 8-32 ng/mL, read-out: Papp, range of means): 1.25 to 2.13 ×10⁻⁶ cm/s; amount of toxin crossing the intestinal barrier in vitro ([4]; regardless of the concentration loaded, 2 and 6 h): < 4%
C=C1CCCC2=NCC(C)C(C)CC23CCC(C2CCC(=O)O2)=CC3C2OC3(CC(C)CC2O3)CC2OC3(CCC4(OC(CCC4(C)O)C1)O3)CC(C)C2O (stereo not drawn) [PnTX-F] | significant increase | 8.95 ± 1.69 | 6.28 ± 2.37 | 6.94 ± 2.03 | 16.1 ± 0.24 | 11.4 ± 2.88 | 13.7 ± 1.09 | 4.75 ± 0.35 | 4.00 ± 0.00 | 5.03 ± 0.31 | 14.43 ± 2.73 | 10.12 ± 3.82 | 11.20 ± 3.27 | 8.75 ± 2.12 | 7.44 ± 0.97 | 10.31 ± 2.83 | 26.00 ± 0.52 | 18.36 ± 4.64 | 22.09 ± 1.76 | high oral bioavailability | macroscopic lesions on the intestine, other organs and tissues [5]: no macroscopic lesions; TEER ([2]; 24 h, 32 ng/mL): 67 ± 5.6 % of the control value; effect on TEER ([2]; 24 h, 8 and 16 ng/mL): slight non-significant decrease; percentage of toxin crossing (text summary over 8-32 ng/mL) ([4]; 2 h): around 12%
C=CC1=CC2C3OC4(CC(C)CC3O4)CC3OC4(CCC5(OC(CCC5(C)O)CC(=C)CCCC5=NCC(C)C(C)CC52CC1)O4)CC(C)C3O (stereo not drawn) [PnTX-H, Pinnatoxin H] |  | 19.5 ± 3.14 | 13.7 ± 4.83 | 18 ± 2.19 | 36 ± 5.4 | 30.3 ± 6.69 | 33.6 ± 2.43 | 3.96 ± 0.19 | 3.21±0.94 | 4.32 ± 1.10 | 31.52 ± 5.07 | 22.05 ± 7.80 | 29.07 ± 3.54 | 7.37 ± 1.42 | 7.10 ± 0.79 | 8.04 ± 1.80 | 58.06 ± 8.71 | 48.83 ± 11.22 | 54.22 ± 3.91 | high oral bioavailability | effect on passage of LY [1]: lower effect; effect on LY permeability ([1]; 32 ng/mL only): significant increase; effect on TEER ([2]; 24 h, 32 ng/mL): slight, but non-significant, decrease
